Assay results from US10758551B2, “Methods and compositions for treating pancreatitis” (BAYLOR RESEARCH INSTITUTE, priority 2015, dated 2020).
“Also recorded” adds a separate entry of the source.

Columns and labels:
[1] = tested on: cerulein-induced pancreatitis; assay: Standard chronic pancreatitis model: cerulein 7 hourly IP injections once per week for 4 weeks, WA one hour prior; format: in vivo, C57BL/6 mice
Experimental: (§1) C57BL/6 mice were injected with 7 hourly IP injections of cerulein at […] once per week for 4 weeks in a standard model for chronic pancreatitis or 6 hourly IP injections of cerulein at […] twice per week for 8 weeks in a stringent model for chronic pancreatitis. WA was administered one hour prior to cerulein beginning in week 1 in the standard model and beginning in week 5 in the stringent model of chronic pancreatits. Incidence of pancreatitis was confirmed by histopathological analysis of pancreas tissue, serum amylase levels, and neutrophil infiltration into pancreatic tissue. Cell proliferation was assessed by Ki67 staining. Pancreatic stone protein REG1α was analyzed by immunohistochemical staining. ImageJ software was used to quantify the area of positively stained cells.
(§2) Chronic pancreatitis (CP) model: Animals were subjected to repeated episodes of acute pancreatitis by supramaximal dose (50 ug/kg) of cerulein administration. Standard Chronic pancreatitis: Mice were fasted overnight prior cerulein injection with ad-libitum supply of water. CP was induced when cerulein was injected i.p. (50 ug/kg) every hour for a total of 7 injection, this injection was repeated once a week for 4 weeks. Control mice were injected with saline as sham treatment. Another group of mice received WA (1.25 mg/kg) 1 hr before the first cerulein injection every week (n=6 mice/group). Mice were then sacrificed and blood and tissue were processed as previously mentioned. Stringent chronic pancreatitis: Mice were fasted overnight prior cerulein injection with ad-libitum supply of water. CP was induced when cerulein was injected i.p. (50 ug/kg) every hour for a total of 6 injection, this injection was repeated twice a week for 8 weeks. WA (0.625 mg/kg) was injected 1 hr prior to first cerulein injection but administration was initiated at week 5 and continued till the end of the experiment. Mice were then sacrificed and tissue was harvested as previously mentioned.
Amylase activity assay: Serum samples obtained from mice after treatment were aliquoted and stored at −80 C until further analysis. Serum was analyzed for amylase activity as per the manufacturer's protocol.
(§3) Histology and Immunohistochemistry: Pancreas tissue was placed in 10% formalin immediately after harvesting and fixed for at least 48 hrs at 4° C. before processing. Tissue samples were paraffin embedded and 5 um sections were made and mounted on slides for staining. Hematoxylin and Eosin (H&E) staining was performed for histopathological evaluation. Sirius Red Staining was performed as per manufacturer's protocol on the sections to evaluate fibrotic change in the tissue section. To perform immunohistochemical staining, the sections were deparaffinized in xylene and rehydrated using ethanol. The slides were incubated in a citrate buffer of pH 6 with at 97° C. for 20 minutes. Following the antigen retrieval process, the slides were carefully washed 3 times for 5 minutes in Tris-buffered saline (TBS) containing 0.025% Triton X-100. The slides were blocked in 1% bovine serum albumin (BSA) in TBS for 2 hours at room temperature to block non-specific binding of the antibodies. Then the slides were incubated overnight with primary antibodies which were diluted in TBS with 1% BSA. The following day, the slides were gently rinsed 3 times for 5 minutes in TBS 0.025% Triton X-100. TRITC or FITC labelled secondary antibodies from Invitrogen were diluted in TBS with 1% BSA. The slides were counterstained with DAPI and mounted for microscopic analysis. ImageJ software was used to perform semi-quantitative analysis of the staining.
(§4) qRT-PCR: Pancreas tissue samples were stored in RNAlater at −80° C. until extraction procedure. Total RNA from the pancreas tissue were extracted using TRIzol reagent. Tissue was homogenized and debris was removed by centrifugation. Chloroform was added to separate the RNA from other biomolecules, and further precipitated using iso-propanol. […]

[2] = tested on: cerulein-induced pancreatitis; assay: Stringent chronic pancreatitis model: cerulein 6 hourly IP injections twice per week for 8 weeks, WA from week 5; format: in vivo, C57BL/6 mice; details: for Histopathology (H&E, Sirius red): pancreas damage, acinar cell atrophy, mononuclear cell infiltration, fibrosis: stringent model, cerulein (50 ug/kg) + Withaferin vs cerulein only, FIGS. 3C, 3F, six animals per group
Experimental: as §1, §2, §3
as §4, with “iso-propanol. RNA pellet was washed with ethanol and quantified using nanodrop 2000. cDNA synthesis was performed using high capacity cDNA reverse transcription kit as per manufacturer's protocol.” for “iso-propanol.”

[3] = tested on: NF-κB p65; assay: NF-κB p65 immunohistochemical staining and protein blot of pancreas of cerulein treated mice; format: in vivo, mouse; details: WA + cerulein vs cerulein treated mice
Experimental: as §3, with “The slides were counterstained with DAPI and mounted for microscopic analysis.” left out

[4] = tested on: cerulein-induced pancreatitis; assay: Standard chronic pancreatitis model: cerulein 7 hourly IP injections once per week for 4 weeks, WA one hour prior; format: in vivo, C57BL/6 mice; details: WA (1 mg/kg) without cerulein; FIG. 2B
[5] = tested on: cerulein induced acute pancreatitis; assay: Acute pancreatitis model: cerulein 7 hourly IP injections, WA one hour prior; format: in vivo, C57BL/6 mice; details: WA 1.25 mg/kg, n=5/group
Experimental: Acute pancreatitis (AP) model: Animals were fasted overnight prior to induction of pancreatitis by cerulein, water was given ad-libitum. Mice were injected with Cerulein (50 ug/kg intraperitoneally) or saline every hour for a total of 7 injections and were sacrificed 1 hr after the last injection. WA (1.25 mg/kg) was administered 1 hr before first cerulein injection (n=5 mice/group). […] Pancreas was divided for immunohistochemistry, RNA extraction, protein extraction, immune cell infiltration analysis. Amylase activity assay: Serum samples obtained from mice after treatment were aliquoted and stored at −80 C until further analysis. Serum was analyzed for amylase activity as per the manufacturer's protocol. Immune cell infiltration assay: Cell suspension was prepared from the pancreas tissue after digestion with collagenase (2 mg/mL) at 37° C. for 15 mins. Tissue was further mechanically digested by pipetting several times, the suspension was then washed and filtered to obtain only the single cell fraction. Cell suspension obtained was used for flow cytometric analysis of infiltrated immune cells. 1×10^6 pancreatic cells were labelled with anti-CD45, anti-CD11b, anti-CD14, and anti-Ly6g antibodies. Stained cells were detected using FACScanto II and data were analyzed using FlowJo software. To model acute pancreatitis, C57BL/6 mice were injected with 7 hourly IP injections of cerulein at 50 μg/kg. WA (1.25 mg/kg) was administered one hour prior to cerulein. […] Inflammatory cell infiltration was increased in cerulein-treated mice (FIGS. 18B, 18E, and 18H) compared to controls (FIGS. 18A, 18D, and 18G), but were reduced in cerulein and WA-treated mice (FIGS. 18C, 18F, and 18I) compared to cerulein-treated mice.

Histopathology (H&E) of pancreas, WA alone [4]: normal phenotype
Compound: CC1=C(CO)C(=O)O[C@@H]([C@@H](C)[C@H]2CC[C@H]3[C@@H]4C[C@H]5O[C@]56[C@@H](O)C=CC(=O)[C@]6(C)[C@H]4CC[C@]23C)C1 [WA, (4β,5β,6β,22R)-5,6-Epoxy-4,22,27-trihydroxy-1-oxoergosta-2,24-dien-26-oic acid 6-lactone]
Ki67+ area in pancreas (ImageJ, semi-quantitative) ([1]; Standard CP model, FIG. 9A, n=5/group): significantly lower Ki67+ area
Histopathology (H&E): acinar cell atrophy, mononuclear cell infiltration, severity of chronic pancreatitis ([1]; WA + cerulein (50 ug/kg) vs cerulein only, FIG. 2D, six animals per group): significantly reduced acinar cell atrophy and infiltration of mononuclear cells; also recorded: significantly reduced severity of chronic pancreatitis
Serum amylase levels ([1]; WA + cerulein treated mice, cerulein only 952.8±228.8, p=0.045, FIG. 4): 696.3 ± 98.6 nmol/min/mL
Neutrophils migrated into pancreas ([1]; WA treated mice, cerulein only 3,742±1,188, p=0.03, FIGS. 7F, 7G, standard or stringent CP model not stated): 719±276 cells per objective field at a magnification of ×200
REG1α immunohistochemical staining of pancreas ([1]; WA treatment, cerulein only 3,779±448, p=0.003, brought to control levels, model not stated): 544±43
Ki67+ cells in the pancreas ([1]; WA+cerulein, cerulein only 20.0±16.0, FIG. 8, 9A-B (percentage of Ki67+ cells, ImageJ), model not stated): 3.8±2.9
Ly6g+ granulocyte infiltration of pancreas (immunohistochemical staining) ([1]; cerulein + WA vs cerulein, FIG. 7F, n=5/group, model not stated): significantly reduced inflammatory cell infiltration
Serum amylase level compared to cerulein treated mice ([1]; serum at week 3 and week 4, one hour after last injection, FIG. 4, n=6/group): significantly lower serum amylase level
Inflammasome gene expression in pancreas (qRT-PCR) ([1]; standard CP model, HMGB1, Pycard, NLRP3, IL-18, IL-1b, FIG. 13, n=4/group): decreased; also recorded: significantly reduced inflammasome related genes
Pro-inflammatory and pro-apoptotic gene expression in pancreas (qRT-PCR) ([1]; standard CP model, IL-6, TNFα, Nos2, Casp3, Casp7, Bax, FIG. 15, n=4/group): decreased; also recorded: significantly reduced most of these gene signals
ER stress gene expression in pancreas (qRT-PCR) ([1]; standard CP model, Perk, Atf6, Ern1, Eif2a, Atf4, xbp1, Chop, FIG. 11, n=4/group): decreased; also recorded: significantly reduced ER stress gene signals
IL-6 in pancreas tissue lysate (Luminex) ([1]; standard chronic pancreatitis, FIG. 5A, n=4/group): effectively blocked production
MCP-1 in pancreas tissue lysate (Luminex) ([1]; standard chronic pancreatitis, FIG. 5B, n=4/group): effectively blocked production
Ki67+ area in pancreas (ImageJ, semi-quantitative) ([2]; Stringent CP Model, FIG. 9B, n=5/group): significantly lower Ki67+ area
Inflammasome gene expression in pancreas (qRT-PCR) ([2]; stringent CP model, HMGB1, NLRP3, IL-1b, FIG. 14, n=4/group): decreased; also recorded: significantly reduced inflammasome related genes
Pro-inflammatory and pro-apoptotic gene expression in pancreas (qRT-PCR) ([2]; stringent CP model, IL-6, TNFα, Nos2, Bax, FIG. 16, n=4/group): decreased; also recorded: significantly reduced most of these gene signals
ER stress gene expression in pancreas (qRT-PCR) ([2]; stringent CP model, Perk, Ern1, Atf6, Chop, xbp1, eif2a, Atf4, FIG. 12, n=4/group): decreased; also recorded: significantly reduced ER stress gene signals
IL-6 in pancreas tissue lysate (Luminex) ([2]; stringent chronic pancreatitis, FIG. 6A, n=4/group): effectively blocked production
MCP-1 in pancreas tissue lysate (Luminex) ([2]; stringent chronic pancreatitis, FIG. 6B, n=4/group): effectively blocked production
Histopathology (H&E, Sirius red): pancreas damage, acinar cell atrophy, mononuclear cell infiltration, fibrosis [2]: significantly reduced acinar cell atrophy and infiltration of mononuclear cells
Histopathology (H&E, Sirius red): pancreas damage, acinar cell atrophy, mononuclear cell infiltration, fibrosis ([2]; listed as Withaferin): significantly reduced pancreas damage and fibrosis
NF-κB p65 translocation into the nucleus (immunohistochemical staining of pancreatic tissue) ([3]; FIG. 10C): significantly prevented NF-κB translocation into the nucleus
NF-κB P65 protein expression in pancreatic lysate (protein blot) ([3]; FIG. 10D): significantly inhibited overexpression
Inflammatory cell infiltration into pancreas (flow cytometry) ([5]; CD45+CD11b+ myeloid cells, CD45+Ly6g+ granulocytes, CD45+CD14+ monocytes, FIG. 18): reduced percentage of infiltrating cells
Leucocyte (CD45+) infiltration into pancreas (flow cytometry) ([5]; FIG. 19G-J): reduced percentage of infiltrating cells
Serum amylase compared to cerulein treated mice ([5]; serum one hour after last cerulein injection, FIG. 17): significantly decreased; also recorded: significantly reduced serum amylase
